Assay results: patent US10138255B2, “Piperazine derivatives as HIV protease inhibitors” (Merck Sharp & Dohme Corp., priority 2014, dated 2018)

These compounds were tested on HIV-1 (H9IIIB strain) (assay: Cell-Based HIV Infection Assay Using a Reporter (MT4-GFP cells)). Settings: Human immunodeficiency virus 1, inflection point (IP) of viral growth inhibition; MT4-GFP cells infected with HIV-1 H9IIIB; 50% normal human serum; mean of at least two independent experiments; read-out: Cell Based IP (50% NHS).
Description: Cell-Based HIV Infection Assay Using a Reporter (“Cell-Based”):
MT4-GFP cells contain a stably integrated HIV long terminal repeat promoter directing the transcription of green fluorescent protein (GFP). When HIV infects the cell, GFP is produced and the cell becomes green. MT4-GFP cells (250,000 cells/mL) were bulk-infected with HIV-1 (H9IIIB strain) at low multiplicity of infection (MOI) in RPM 1640 media, supplemented with 10% FBS for 24 h. Cells were then washed once in RPMI 1640 plus 10% FBS and resuspended in RPMI plus 50% normal human serum (NHS). Test compounds were serial-diluted in DMSO using an ECHO liquid dispenser. A control well included a combination of three HIV drugs (an inhibitor of HIV protease, integrase strand transfer and a non-nucleoside reverse transcriptase inhibitor; triple drug). The infected MT4-GFP cells were added to a 384-well poly-D-lysine coated black plate with clear bottom in which the diluted test compounds were placed. The cells were seeded in the plate at 8,000 cells per well and the final DMSO concentration was 0.4%. Infected cells were quantified at both 24 and 48 h post incubation using an Acumen eX3 plate reader. Viral reproductive ratio (R0) was determined using the number of infected cells at 48 h divided by the number of infected cells at 24 h. Percent viral growth inhibition was calculated by [1−(R−Rtripledrug)/(RDMSO−Rtripledrug)]*100. Compound potency inflection point (IP) was determined with use of a 4-parameter dose response curve analysis.
Data shown in the table reflects the mean of at least two independent experiments.

Point of comparison: `COC(=O)N[C@H](C(=O)Nc1cccc(F)c1CC[C@H]1CNC2CCCS(=O)(=O)N1C2)[C@@H](c1ccc(Cl)cc1)[C@H]1CCOC(C)(C)C1` (stereo partly drawn) [Example 43, methyl {(1S,2R)-2-(4-chlorophenyl)-2-[(4S)-2,2-dimethyltetrahydro-2H-pyran-4-yl]-1-[(2-{2-[(9S)-2,2-dioxido-2-thia-1,7-diazabicyclo[4.3.1]dec-9-yl]ethyl}-3-fluorophenyl)carbamoyl]ethyl}carbamate], EC50 8.5 nM. Against it:
- Cn1nc(C(F)(F)F)cc1[C@H](c1ccc(Cl)cc1)[C@H](N)C(=O)Nc1cncc(F)c1CC[C@H]1CN[C@@H]2CCCS(=O)(=O)N1C2 [Example 262, (βR)-4-chloro-N-(4-{2-[(6R,9S)-2,2-dioxido-2-thia-1,7-diazabicyclo[4.3.1]dec-9-yl]ethyl}-5-fluoropyridin-3-yl)-β-[1-methyl-3-(trifluoromethyl)-1H-pyrazol-5-yl]-L-phenylalaninamide] — 2.6-fold higher, 22 nM
- N[C@H](C(=O)Nc1c(F)ccc(F)c1CC[C@H]1CN[C@@H]2CCCS(=O)(=O)N1C2)[C@@H](c1ccc(Cl)cc1)C1CCOCC1 [Example 91, (βR)-4-chloro-N-(2-{2-[(6R,9S)-2,2-dioxido-2-thia-1,7-diazabicyclo[4.3.1]dec-9-yl]ethyl}-3,6-difluorophenyl)-β-(tetrahydro-2H-pyran-4-yl)-L-phenylalaninamide] — 2.6-fold higher, 22 nM
- CC(C)[C@H](c1ccc(Cl)cc1)[C@H](N)C(=O)N[C@H]1CCCC[C@@H]1CC[C@H]1CN[C@@H]2CCCS(=O)(=O)N1C2 [Example 161, (βR)-4-chloro-N-[(1S,2R)-2-{2-[(6R,9S)-2,2-dioxido-2-thia-1,7-diazabicyclo[4.3.1]dec-9-yl]ethyl}cyclohexyl]-β-(1-methylethyl)-L-phenylalaninamide] — 9.2-fold higher, 78 nM
- CO[C@H]1CC[C@H]([C@H](c2ccc(F)cc2)[C@H](N)C(=O)Nc2cccc(F)c2CC[C@H]2CN[C@@H]3CCCS(=O)(=O)N2C3)CC1 [Example 118, (βR)-N-(2-{2-[(6R,9S)-2,2-dioxido-2-thia-1,7-diazabicyclo[4.3.1]dec-9-yl]ethyl}-3-fluorophenyl)-4-fluoro-β-[(1r,4R)-4-methoxycyclohexyl]-L-phenylalaninamide] — within 1.5-fold, 7.5 nM
- N[C@H](C(=O)Nc1cncc(F)c1CC[C@H]1CN[C@@H]2CCCS(=O)(=O)N1C2)[C@@H](c1ccc(Cl)cc1)C1CCOCC1 [Example 173, (βR)-4-chloro-N-(4-{2-[(6R,9S)-2,2-dioxido-2-thia-1,7-diazabicyclo[4.3.1]dec-9-yl]ethyl}-5-fluoropyridin-3-yl)-β-(tetrahydro-2H-pyran-4-yl)-L-phenylalaninamide] — 2.7-fold higher, 23 nM
- COC(=O)N[C@@H](C(=O)N[C@H]1CCC[C@@H]1CC[C@H]1CN[C@@H]2CCCS(=O)(=O)N1C2)[C@@H](c1ccc(Cl)cc1)C1CCN(C(=O)OCc2ccccc2)CC1 [Example 137, benzyl 4-{(1R,2R)-1-(4-chlorophenyl)-3-{[(1S,2R)-2-{2-[(6R,9S)-2,2-dioxido-2-thia-1,7-diazabicyclo[4.3.1]dec-9-yl]ethyl}cyclopentyl]amino}-2-[(methoxycarbonyl)amino]-3-oxopropyl}piperidine-1-carboxylate] — 150-fold higher, 1300 nM
- COC(=O)N[C@H](C(=O)Nc1cccc(F)c1CCC1CNC2CCCS(=O)(=O)N1C2)[C@@H](c1ccc(Cl)cc1)c1ccc(OC)nc1 (stereo partly drawn) [Example 47, methyl [(1S,2S)-2-(4-chlorophenyl)-1-({2-[2-(2,2-dioxido-2-thia-1,7-diazabicyclo[4.3.1]dec-9-yl)ethyl]-3-fluorophenyl}carbamoyl)-2-(6-methoxypyridin-3-yl)ethyl]carbamate] — 2.1-fold higher, 18 nM
- COc1cc([C@H](c2ccc(Cl)c(F)c2)[C@H](N)C(=O)Nc2cccc(F)c2CCC2CNC3CCCS(=O)(=O)N2C3)ccn1 (stereo partly drawn) [Example 67, (βR)-4-chloro-N-{2-[2-(2,2-dioxido-2-thia-1,7-diazabicyclo[4.3.1]dec-9-yl)ethyl]-3-fluorophenyl}-3-fluoro-β-(2-methoxypyridin-4-yl)-L-phenylalaninamide] — 1.9-fold lower, 4.5 nM
- C[C@@H]1C[C@H]([C@H](c2ccc(F)cc2)[C@H](N)C(=O)N[C@H]2CCCC[C@@H]2CC[C@H]2CN[C@@H]3CCCS(=O)(=O)N2C3)C[C@H](C)O1 [Example 149, (βR)-β-[(2R,4r,6S)-2,6-dimelhyltclrahydro-2H-pyran-4-yl]-N-[(1S,2R)-2-{2-[(6R,9S)-2,2-dioxido-2-thia-1,7-diazabicyclo[4.3.1]dec-9-yl]ethyl}cyclohexyl]-4-fluoro-L-phenylalaninamide] — 11-fold higher, 97 nM
- N[C@H](C(=O)Nc1cccc(F)c1CCC1CNC2CCCS(=O)(=O)N1C2)[C@@H](c1ccc(F)cc1)c1cc(F)cc(F)c1 (stereo partly drawn) [Example 1, (βS)—N-{2-[2-(2,2-Dioxido-2-thia-1,7-diazabicyclo[4.3.1]dec-9-yl)ethyl]-3-fluorophenyl}-3,5-difluoro-β-(4-fluorophenyl)-L-phenylalaninamide] — 2.9-fold lower, 2.9 nM
- N[C@H](C(=O)Nc1cncc(F)c1CC[C@H]1CN[C@@H]2CCCS(=O)(=O)N1C2)[C@@H](c1ccc(Cl)cc1)c1cc(F)cc(F)c1 [Example 236, (βS)-β-(4-chlorophcnyl)-N-(4-{2-[(6R,9S)-2,2-dioxido-2-thia-1,7-diazabicyclo[4.3.1]dec-9-yl]ethyl}-5-fluoropyridin-3-yl)-3,5-difluoro-L-phenylalaninamide] — 3-fold lower, 2.8 nM
- COc1ccc([C@H](c2ccc(Cl)cc2)[C@H](N)C(=O)N[C@H]2CCCC[C@@H]2CC[C@H]2CN[C@@H]3CCCS(=O)(=O)N2C3)cn1 [Example 155, (βS)-4-chloro-N-[(1S,2R)-2-{2-[(6R,9S)-2,2-dioxido-2-thia-1,7-diazabicyclo[4.3.1]dec-9-yl]ethyl}cyclohexyl]-β-(6-methoxypyridin-3-yl)-L-phenylalaninamide] — 71-fold higher, 600 nM
- COC(=O)N[C@H](C(=O)Nc1cccc(F)c1CCC1CN[C@@H]2CCCS(=O)(=O)N1C2)[C@H](CC(C)C)c1ccc(F)cc1 (stereo partly drawn) [Example 90, methyl [(1S,2R)-1-[(2-{2-[(6R)-2,2-dioxido-2-thia-1,7-diazabicyclo[4.3.1]dec-9-yl]ethyl}-3-fluorophenyl)carbamoyl]-2-(4-fluorophenyl)-4-methylpcnlyl]carbamate] — 2.7-fold higher, 23 nM
- CO[C@H](C(C)C)[C@H](c1ccc(F)cc1)[C@H](N)C(=O)Nc1cccc(F)c1CCC1CN[C@@H]2CCCS(=O)(=O)N1C2 (stereo partly drawn) [Example 88, (βR)-N-(2-{2-[(6R)-2,2-dioxido-2-thia-1,7-diazabicyclo[4.3.1]dec-9-yl]ethyl)-3-fluorophenyl)-4-fluoro-β-[(1R)-1-methoxy-2-methylpropyl]-L-phenylalaninamide] — 11-fold higher, 91 nM
- CC1(C)C[C@@H]([C@H](c2ccc(Cl)cc2)[C@H](N)C(=O)Nc2c(F)ccc(F)c2CC[C@H]2CN[C@@H]3CCCS(=O)(=O)N2C3)CCO1 [Example 194, (βR)-4-chloro-β-[(4S)-2,2-dimethyltetrahydro-2H-pyran-4-yl]-N-(2-{2-[(6R,9S)-2,2-dioxido-2-thia-1,7-diazabicyclo[4.3.1]dec-9-yl]ethyl}-3,6-difluorophenyl)-L-phenylalaninamide] — 2.2-fold higher, 19 nM
- COC(=O)N[C@H](C(=O)Nc1cccc(F)c1CCC1CNC2CCCS(=O)(=O)N1C2)[C@@H](c1ccc(Cl)cc1)c1cncc(C(C)(F)F)c1 (stereo partly drawn) [Example 114, methyl [(1S,2S)-2-(4-chlorophenyl)-2-[5-(1,1-difluoroethyl)pyridin-3-yl]-1-({2-[2-(2,2-dioxido-2-thia-1,7-diazabicyclo[4.3.1]dec-9-yl)ethyl]-3-fluorophenyl}carbamoyl)ethyl]carbamate] — 2.6-fold higher, 22 nM
- COC(=O)N[C@H](C(=O)Nc1cccc(F)c1CC[C@H]1CN[C@@H]2CCCS(=O)(=O)N1C2)[C@@H](c1ccc(Cl)cc1)C1CCC(C(F)(F)F)OC1 (stereo partly drawn) [Example 273, methyl {(1S,2R)-2-(4-chlorophenyl)-1-[(2-{2-[(6R,9S)-2,2-dioxido-2-thia-1,7-diazabicyclo[4.3.1]dec-9-yl]ethyl}-3-fluorophenyl)carbamoyl]-2-[6-(trifluoromethyl)tetrahydro-2H-pyran-3-yl]ethyl}carbamate] — 1.6-fold higher, 14 nM
- N[C@H](C(=O)Nc1cccc(F)c1CCC1CNC2CCCS(=O)(=O)N1C2)[C@H](CCC1CCCCO1)c1ccc(Cl)cc1 (stereo partly drawn) [Example 151, (βR)-4-chloro-N-{2-[2-(2,2-dioxido-2-thia-1,7-diazabicyclo[4.3.1]dec-9-yl)ethyl]-3-fluorophenyl}-β-[2-(tetrahydro-2H-pyran-2-yl)ethyl]-L-phenylalaninamide] — 2.7-fold higher, 23 nM
- N[C@H](C(=O)Nc1cccc(F)c1CC[C@H]1CN[C@@H]2CCCS(=O)(=O)N1CC2)[C@@H](c1ccc(F)cc1)c1cc(F)cc(F)c1 [Example 276, (2S,3S)-2-Amino-3-(3,5-difluorophenyl)-N-(2-(2-((6R,9S)-2,2-dioxido-2-thia-1,7-diazabicyclo[4.3.2]undecan-9-yl)ethyl)-3-fluorophenyl)-3-(4-fluorophenyl)propanamide] — within 1.5-fold, 6.1 nM
